This is an account of results in US20210403858A1, “Bacillus strain and microbial preparation of bacillus and method of using microbial preparation” (ROLLING GREENS CO., LTD., priority 2020, published 2021).

The test system of one assay is rice seedlings. Put plainly: IAA sensitivity test on rice seedlings. The conditions noted are these: 4 days. The format is in vivo. As to the method: Taking rice and lettuce for example, IAA sensitivity of the microbial preparation is tested in steps of: disinfecting and germinating rice seedlings; putting the rice seedlings in a sterilized Petri dish in which a filter paper is disposed; […]; moving the sterilized Petri dish into a plant growth box for 4 days; measuring an average height of buds of the rice seedlings and an average height of roots of the rice seedlings;

The test system of another assay is lettuce. Put plainly: IAA sensitivity test on lettuce. The format is in vivo. As to the method:
disinfecting seeds of the lettuce with 5% sodium hypochlorite and putting the seeds of the lettuce in another sterilized Petri dish in which a filter paper is disposed; adding 3 mL of 0.03 μM, 3 μM, 30 μM, and 300 μM of IAA aqueous solutions respectively; moving another sterilized Petri dish into another plant growth box for 3 days; and measuring a germination rate and a height of each lettuce and a length of a root of each lettuce.

For the molecule `O=C(O)Cc1c[nH]c2ccccc12` [IAA], the “growth of the roots of the rice seedlings” value was “does not promote a growth of the roots” with rice seedlings (IAA 0.03 μM to 30 μM, FIG. 1) and “limited” with rice seedlings (IAA 300 μM). Also, in the assay on lettuce (IAA 0.03 μM, 3 days (no IAA: 5.3 mm)), the “height of lettuce sprouts” value is listed as 3.5 mm. Further, the “length of lettuce roots” value in the assay with lettuce (IAA 0.03 μM, 3 days (no IAA: 14.8 mm)) turned out to be 8.8 mm. The “germination rate of the seeds of the lettuce” value in the assay with lettuce (IAA 300 μM, 3 days (no IAA: 78%)) is reported as 13%.
